Reference: US10568854B2, “Compositions and methods for treating kabuki syndrome and related disorders” (THE JOHNS HOPKINS UNIVERSITY, priority 2014, dated 2020)
Entries after “also recorded” stand apart in the source; their conditions may differ.

Columns and labels:
[1] = tested on: H3K4me3 indicator (H3K4 trimethylation machinery activity); test: H3K4me3 indicator reporter assay, FACS; format: cell-based; details: FIG. 17F
Excerpt: Design of the indicator constructs. A genetically encoded histone reporter allele system has been developed which can be used to monitor activity of any histone maintenance machinery component in live cells. Previously, FRET based epigenetic activity systems have been created (Lin and Ting (2004) Angew Chem Int Ed Engl. 24;43 (22):2940-3; Lin et al. (2004) J. Am. Chem. Soc. 19;126(19):5982-3; U.S. Pat. No. 7,056,683). However, FRET-based assays need a complex technological setup which is not widely available and FRET-based assays have been much more difficult to introduce into transgenic mouse models. […] The particular construct design is based on a circularly permutated green fluorescent protein (GFP) that lacks fluorescence unless the two parts of GFP are brought into close proximity by external forces (Baird et al. (1999) Proc. Natl. Acad. Sci. U.S.A. 28;96(20):11241-6). […]
An H3K4 trimethylation reporter was also created. […] The activity of the epigenetic modification system can be quantified through fluorescence.
Epigenetic reporter alleles: Epigenetic reporter alleles were synthesized (OriGene, Rockville, Md.) using published sequences for component elements (Baird et al. (1999) Proc. Nail. Acad. Sci. 96:11241-6; Souslova et al. (2007) BMC Biotechnol. 7:37). […] FACS data were analyzed using FlowJo (Tree Star Inc, Ashland, Oreg.). […]

[2] = tested on: genome-wide H3K4me3 in spleen cells; test: ChIP-seq of H3K4me3 in spleen cells; format: in vivo, mouse; details: 10 mg/kg/day, Kmt2d^+/βGeo mice
Method: ChIP-seq: Spleens were dissected from eight mice, four from each kmt2d genotype (+/βGeo or +/+) where half of each genotype was treated with AR-42 and half with vehicle only. Spleens were minced and passed through a […] cell strainer to obtain single cell suspensions. 10 million cells were used for each ChIP-seq experiment following the native chromatin immunoprecipitation protocol, as previously described (Gilfillan et al. (2012) BMC Genomics 13:645), using a ChIP-grade antibody against H3K4me3 (9727, Cell Signaling Technology, Beverly, Mass.).
ChIP-seq data analysis: Sequencing was performed using a MiSeq system (Illumina, San Diego, Calif.). 4.8-9.6 million paired-end 26 by reads were obtained per sample (Table 2; nReads=number of reads, alignRate=fraction aligned to genome; FRIP=fraction of reads in peaks). Reads were aligned to the m. musculus genome, version mm10, using Bowtie 2 (Langmead and Salzberg (2012) Nat. Methods. 9: 357-9). Each sample was examined with regard to alignment rate as well as FRIP (fraction of reads in peaks), a measure of the ChIP efficiency (Table 2). […] For analysis, reads were merged into one meta-sample and peak calling was performed using MACS version 1.4.2 (Zhang et al. (2008) Genome Biol. 9: R137). […] This created a peak by sample matrix of read counts. […] Fold change and overall abundance was calculated as per edgeR. […]

With CC(C)[C@H](C(=O)Nc1ccc(C(=O)NO)cc1)c1ccccc1 [AR-42, (S)—N-hydroxy-4-(3-methyl-2-phenylbutanamido)benzamide] the “H3K4me3 indicator response to increasing levels of drug” value [1] was “dose dependent response”, the cell numbers ([1]; higher doses) was “decreased cell numbers at higher doses” and the “genome-wide H3K4me3 (ChIP-seq)” value [2] was “genome-wide increase in H3K4me3; also recorded: improved”.
